Patent US8232406B2, “c-MET protein kinase inhibitors” (Vertex Pharmaceuticals Incorporated, priority 2006, dated 2012)

Target: c-MET (Homo sapiens, UniProt P08581)
Test: Ki determination for the inhibition of c-MET (standard radiometric 33P-ATP kinase assay, polyE4Y substrate)
Format: biochemical
Conditions: 1.0 nM c-Met, 35 μM ATP, 0.5 mg/mL polyE4Y, 20 min; competitive tight-binding fit
Procedure, shortened: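 Radiometric assay of 33P transfer from 33P-ATP (35 μM) to polyE4Y (0.5 mg/mL) by 1.0 nM c-Met in 100 mM HEPES pH 7.5, 10 mM MgCl2, 25 mM NaCl, 0.01% BSA, 1 mM DTT. TCA-quenched after 20 min, filter-captured, scintillation-counted; Ki fitted to a competitive tight-binding model.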

c-MET, sequence (P08581 25-1390): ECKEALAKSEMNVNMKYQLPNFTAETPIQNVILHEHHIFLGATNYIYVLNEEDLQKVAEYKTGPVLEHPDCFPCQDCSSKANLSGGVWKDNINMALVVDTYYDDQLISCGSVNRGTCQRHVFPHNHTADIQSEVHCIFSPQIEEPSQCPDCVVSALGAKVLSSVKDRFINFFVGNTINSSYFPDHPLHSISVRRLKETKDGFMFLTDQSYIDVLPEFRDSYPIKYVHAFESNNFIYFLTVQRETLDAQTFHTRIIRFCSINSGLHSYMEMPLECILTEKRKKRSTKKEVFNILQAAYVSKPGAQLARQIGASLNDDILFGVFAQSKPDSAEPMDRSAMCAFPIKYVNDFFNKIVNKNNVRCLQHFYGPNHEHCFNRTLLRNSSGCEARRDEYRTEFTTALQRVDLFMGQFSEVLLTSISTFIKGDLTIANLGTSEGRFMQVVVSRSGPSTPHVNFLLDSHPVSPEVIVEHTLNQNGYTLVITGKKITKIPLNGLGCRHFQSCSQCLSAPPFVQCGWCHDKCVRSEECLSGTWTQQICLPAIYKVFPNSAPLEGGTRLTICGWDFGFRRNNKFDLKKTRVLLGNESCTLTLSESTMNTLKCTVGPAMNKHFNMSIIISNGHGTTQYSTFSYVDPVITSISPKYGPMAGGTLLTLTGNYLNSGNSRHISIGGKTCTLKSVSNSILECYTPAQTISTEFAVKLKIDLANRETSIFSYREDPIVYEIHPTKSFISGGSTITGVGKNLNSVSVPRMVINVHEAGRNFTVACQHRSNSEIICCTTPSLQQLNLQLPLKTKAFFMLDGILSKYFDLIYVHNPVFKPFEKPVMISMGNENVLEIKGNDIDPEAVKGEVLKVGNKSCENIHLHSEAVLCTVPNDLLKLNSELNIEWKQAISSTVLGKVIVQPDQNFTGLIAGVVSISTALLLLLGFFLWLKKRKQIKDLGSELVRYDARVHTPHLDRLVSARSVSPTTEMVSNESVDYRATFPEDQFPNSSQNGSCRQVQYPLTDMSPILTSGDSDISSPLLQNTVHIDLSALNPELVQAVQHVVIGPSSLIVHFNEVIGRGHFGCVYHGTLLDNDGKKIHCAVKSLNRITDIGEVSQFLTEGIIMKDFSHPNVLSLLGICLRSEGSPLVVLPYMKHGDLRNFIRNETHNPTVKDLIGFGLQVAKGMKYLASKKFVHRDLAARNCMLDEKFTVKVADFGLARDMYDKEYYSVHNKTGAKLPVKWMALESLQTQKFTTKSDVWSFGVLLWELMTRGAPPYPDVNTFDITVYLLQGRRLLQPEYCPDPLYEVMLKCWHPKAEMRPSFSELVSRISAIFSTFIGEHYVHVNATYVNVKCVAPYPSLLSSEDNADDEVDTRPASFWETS

| Ki | Structure (SMILES) |
| --- | --- |
| ≤ 100 nM | CN(C)Cc1ccc(-c2cnc(N)c(-c3nnnn3-c3cccc(Cl)c3Cl)c2)cc1 [I-A-79] |
| ≤ 100 nM | NC(=O)Nc1ccc(-c2cnc(N)c(-c3nnnn3-c3cccc(F)c3F)c2)cc1 [I-A-183] |
| ≤ 100 nM | Nc1ncc(-c2cnn(C3CNC3)c2)cc1-c1nnnn1-c1cccc(Cl)c1Cl [I-A-427] |
| ≤ 100 nM | CN(C)Cc1ccc(-c2cnc(N)c(-c3nnnn3-c3c(F)cccc3Cl)c2)cc1 [I-A-623] |
| ≤ 100 nM | CC(=O)Nc1cc(-c2cnc(N)c(-c3nnnn3-c3cccc(F)c3F)c2)ccc1CN1CCCC1 [I-A-339] |
| ≤ 100 nM | CCCN1CCc2cc(-c3cnc(N)c(-c4nnnn4-c4cccc(F)c4F)c3)sc2CC1 [I-A-519] |
| ≤ 100 nM | Nc1ncc(-c2ccc(CN3CCN(CCO)CC3)cc2)cc1-c1nnnn1-c1cccc(Cl)c1Cl [I-A-104] |
| ≤ 100 nM | Nc1ncc(-c2cnn(C3CCN(C(=O)CO)CC3)c2)cc1-c1nnnn1-c1cccc(Cl)c1F [I-A-447] |
| 100 to 1000 nM | CN(C)Cc1ccc(-c2cnc(N)c(-c3nnnn3-c3cc(F)cc(F)c3)c2)cc1 [I-A-591] |
| ≤ 100 nM | Nc1ncc(-c2ccc(CN3CCCCC3)cc2)cc1-c1nnnn1-c1cccc(F)c1F [I-A-134] |
| 100 to 1000 nM | Nc1ncc(-c2ccccc2O)cc1-c1nncn1-c1cccc(Cl)c1Cl [I-A-75] |
| ≤ 100 nM | Nc1ncc(-c2ccc(C3CCNCC3)cc2)cc1-c1nnnn1-c1cccc(F)c1F [I-A-400] |
| 100 to 1000 nM | Nc1ncc(-c2cc3c(s2)CCNCC3)cc1-n1nnnc1-c1cccc(F)c1F [I-E-2] |
| 100 to 1000 nM | Cc1nn(C2CCNCC2)c(C)c1-c1cnc(N)c(-c2nnnn2-c2cccc(Cl)c2F)c1 [I-A-479] |
| 100 to 1000 nM | CC(=O)Nc1cccc(-c2cnc(N)c(-c3nnnn3-c3c(F)cccc3Cl)c2)c1 [I-A-612] |
| ≤ 100 nM | CC(c1ccc(-c2cnc(N)c(-c3nnnn3-c3cccc(F)c3F)c2)cc1)N1CCCC1 (centres unmarked) [I-A-180] |
| 100 to 1000 nM | CN1CCN(c2ccc(-c3cnc(N)c(-c4nncn4-c4cccc(F)c4F)c3)cc2)CC1 [I-A-41] |
| ≤ 100 nM | Nc1ncc(-c2cnn(C3CCNCC3)c2)cc1-c1nnnn1-c1cccc(F)c1Cl [I-A-385] |
| ≤ 100 nM | COC(=O)C(c1ccc(-c2cnc(N)c(-c3nnnn3-c3cccc(F)c3F)c2)cc1)N1CCCC1 (centres unmarked) [I-A-208] |
| 100 to 1000 nM | Cc1nnc(-c2cc(-c3cnn(C4CCNCC4)c3)cnc2N)n1-c1cccc(F)c1Cl [I-A-390] |
| ≤ 100 nM | Nc1ncc(-c2cnn(C3CCNCC3)c2)cc1-c1nc2cccnc2n1-c1cccc(F)c1F [I-D-7] |

| Ki | Structure (SMILES) |
| --- | --- |
| 100 to 1000 nM | Cc1nnc(-c2cnc(N)c(-c3nnnn3-c3cccc(F)c3F)c2)s1 [I-A-494] |
| 100 to 1000 nM | CSc1ccccc1-c1cnc(N)c(-c2nnnn2-c2cccc(F)c2F)c1 [I-A-252] |
| 100 to 1000 nM | Nc1ncc(-c2ccc(C(N)C(=O)O)cc2)cc1-c1nnnn1-c1cccc(F)c1F (centres unmarked) [I-A-205] |
| ≤ 100 nM | Nc1ncc(-c2cnn(C3CCNCC3)c2)cc1-c1nnnn1-c1c(F)cccc1F [I-A-628] |
| ≤ 100 nM | CN(C)Cc1ccc(-c2cnc(N)c(-c3nnnn3-c3c(F)ccc(F)c3Cl)c2)cc1 [I-A-630] |
| ≤ 100 nM | CS(=O)(=O)c1ccc(-c2cnc(N)c(-c3nncn3-c3cccc(F)c3F)n2)cc1 [I-A-32] |
| 100 to 1000 nM | Nc1ncc(C2=CCN(Cc3cccnc3)CC2)cc1-c1nnnn1-c1cccc(F)c1F [I-A-644] |
| ≤ 100 nM | C[C@H](c1ccc(-c2cnc(N)c(-c3nnnn3-c3cccc(F)c3F)c2)cc1)N(C)C [I-A-152] |
| ≤ 100 nM | CN(C)CC(=O)Nc1ccc(-c2cnc(N)c(-c3nnnn3-c3cccc(F)c3F)c2)cc1 [I-A-191] |
| ≤ 100 nM | COC[C@H]1CCCN1Cc1ccc(-c2cnc(N)c(-c3nnnn3-c3cccc(F)c3F)c2)cc1 [I-A-264] |
| ≤ 100 nM | Nc1ncc(-c2ccc3c(c2)OCCO3)cc1-c1nnnn1-c1cccc(F)c1F [I-A-235] |
| 100 to 1000 nM | COCCN(CCOC)Cc1ccc(-c2cnc(N)c(-c3nnnn3-c3cccc(Cl)c3Cl)c2)cc1 [I-A-101] |
| ≤ 100 nM | Nc1cccc(-c2cnc(N)c(-c3nnnn3-c3cccc(F)c3F)c2)c1 [I-A-201] |
| 100 to 1000 nM | Nc1ncc(-c2cn[nH]c2)cc1-c1nncn1-c1cccc(Cl)c1F [I-A-439] |
| ≤ 100 nM | CC(=O)Nc1ccc(-c2cnc(N)c(-c3nnnn3-c3cccc(Cl)c3F)c2)cc1 [I-A-584] |
| 100 to 1000 nM | CC(=O)Nc1ccc(-c2cnc(N)c(-c3nnnn3-c3cc(Cl)ccc3C)c2)cc1 [I-A-576] |
| ≤ 100 nM | Nc1ncc(-c2cnn(C3CCNCC3)c2)cc1-c1nncn1-c1cccc(Cl)c1F [I-A-438] |
| ≤ 100 nM | Nc1ncc(-c2ccc(CN3CC[C@@H](O)C3)cc2)cc1-c1nnnn1-c1cccc(Cl)c1Cl [I-A-119] |
| 100 to 1000 nM | Nc1ncc(-c2cc(F)cc(F)c2)cc1-c1nnnn1-c1cccc(F)c1F [I-A-288] |
| 100 to 1000 nM | CCNC(=O)Nc1nc2cc(-c3cnc(N)c(-c4nnnn4-c4cccc(F)c4F)c3)c(F)cc2[nH]1 [I-A-140] |
| ≤ 100 nM | CNc1ccc(-c2cnc(N)c(-c3nnnn3-c3cccc(F)c3F)c2)cc1C#N [I-A-341] |

| Ki | Structure (SMILES) |
| --- | --- |
| 100 to 1000 nM | Nc1ncc(-c2ccc(F)nc2)cc1-c1nnnn1-c1cccc(F)c1F [I-A-318] |
| ≤ 100 nM | COc1cc(O)ccc1-c1cnc(N)c(-c2nnnn2-c2cccc(F)c2F)c1 [I-A-220] |
| ≤ 100 nM | COCCOC(=O)Nc1ccc(-c2cnc(N)c(-c3nnnn3-c3cccc(F)c3F)c2)cc1 [I-A-277] |
| ≤ 100 nM | Nc1ncc(-c2cnn([C@H]3CCCNC3)c2)cc1-c1nnnn1-c1cccc(Cl)c1Cl [I-A-409] |
| ≤ 100 nM | Nc1ncc(-c2ccc(CO)cc2)cc1-c1nnnn1-c1cccc(F)c1F [I-A-232] |
| ≤ 100 nM | COc1cccc(-c2cnc(N)c(-c3nnnn3-c3cccc(F)c3F)c2)c1 [I-A-221] |
| ≤ 100 nM | Nc1ncc(-c2cnn(C3CCNCC3)c2)cc1-c1nnnn1-c1cc(Cl)ccc1F [I-A-635] |
| 100 to 1000 nM | CC(=O)Nc1ccc(-c2cnc(N)c(-c3nnnn3-c3cccc(F)c3C)c2)cc1 [I-A-574] |
| 100 to 1000 nM | CC(=O)N1CCC[C@H]1C(=O)N1CC=C(c2cnc(N)c(-c3nnnn3-c3cccc(F)c3F)c2)CC1 [I-A-641] |
| 100 to 1000 nM | Nc1ncc(-c2cccc(C(=O)N3CCOCC3)c2)cc1-c1nnnn1-c1cccc(F)c1F [I-A-320] |
| ≤ 100 nM | CN(C)Cc1ccc(-c2cnc(N)c(-c3nnnn3-c3cccc(F)c3F)n2)cc1 [I-A-48] |
| ≤ 100 nM | CC(C)(O)c1ccc(-c2cnc(N)c(-c3nnnn3-c3cccc(F)c3F)c2)cc1 [I-A-268] |
| ≤ 100 nM | Nc1ncc(-c2cnn(C[C@@H]3CCCN3)c2)cc1-c1nnnn1-c1cccc(F)c1F [I-A-500] |
| ≤ 100 nM | Nc1ncc(-c2cnn(C3CCNCC3)c2)cc1-c1nccn1-c1cccc(Cl)c1Cl [I-A-394] |
| ≤ 100 nM | Nc1ccc(-c2cnc(N)c(-c3nnnn3-c3cccc(F)c3F)c2)cc1F [I-A-286] |
| 100 to 1000 nM | Cc1ccccc1-c1cnc(N)c(-c2nnnn2-c2cccc(F)c2F)c1 [I-A-241] |
| ≤ 100 nM | CC(=O)c1ccc(-c2cnc(N)c(-c3nnnn3-c3cccc(F)c3F)c2)cc1 [I-A-219] |
| 100 to 1000 nM | COC(=O)C(C)NC(=O)Nc1cccc(-c2cnc(N)c(-c3nnnn3-c3cccc(F)c3F)c2)c1 (centres unmarked) [I-A-327] |
| ≤ 100 nM | CCOC(=O)Cn1cc(-c2cnc(N)c(-c3nnnn3-c3cccc(F)c3F)c2)cn1 [I-A-345] |
| ≤ 100 nM | Nc1ncc(-c2ccc(CN3CC4CC3CO4)cc2)cc1-c1nnnn1-c1cccc(F)c1F (centres unmarked) [I-A-265] |
| ≤ 100 nM | CN(C)CCNC(=O)c1ccc(-c2cnc(N)c(-c3nnnn3-c3cccc(Cl)c3Cl)c2)cc1 [I-A-124] |

| Ki | Structure (SMILES) |
| --- | --- |
| ≤ 100 nM | Nc1ncc(-c2cnn(C3CCN(CCF)CC3)c2)cc1-c1nncn1-c1cccc(Cl)c1F [I-A-459] |
| 100 to 1000 nM | Nc1ncc(-c2ccccn2)cc1-c1nnnn1-c1cccc(F)c1F [I-A-493] |
| ≤ 100 nM | CC(C)(C)NC(=O)Nc1cccc(-c2cnc(N)c(-c3nnnn3-c3cccc(F)c3F)c2)c1 [I-A-328] |
| ≤ 100 nM | N#CCN1CCC(n2cc(-c3cnc(N)c(-c4nnnn4-c4cccc(F)c4F)c3)cn2)CC1 [I-A-462] |
| 100 to 1000 nM | Nc1ncc(-c2ccncc2)cc1-c1nnnn1-c1cccc(F)c1F [I-A-490] |
| ≤ 100 nM | CC(C)(C)CC(=O)Nc1ccc(-c2cnc(N)c(-c3nnnn3-c3cccc(F)c3F)c2)cc1 [I-A-199] |
| ≤ 100 nM | Nc1ncc(-c2cnn(C3CCNCC3)c2)nc1-c1nnnn1-c1cccc(F)c1F [I-A-468] |
| ≤ 100 nM | Nc1ncc(C2=CCN(C(=O)CC3CC3)CC2)cc1-c1nnnn1-c1cccc(F)c1F [I-A-524] |
| 100 to 1000 nM | CN(C)Cc1ccc(-c2cnc(N)c(-c3nn(C4CCCCC4)cc3-c3cccc(Cl)c3Cl)c2)cc1 [I-B-11] |
| ≤ 100 nM | CN1CCN(Cc2ccc(-c3cnc(N)c(-c4nnnn4-c4cccc(F)c4F)n3)cc2)CC1 [I-A-50] |
| ≤ 100 nM | CC(=O)Nc1ccc(-c2cnc(N)c(-c3nnnn3-c3cccc(Cl)c3Cl)c2)cc1 [I-A-81] |
| 100 to 1000 nM | Nc1ncc(-c2cnn(C3CCNCC3)c2)cc1-c1nnnn1-c1cc(F)cc(F)c1 [I-A-627] |
| 100 to 1000 nM | Cc1nnc(-c2cc(-c3ccc(CN(C)C)cc3)cnc2N)n1-c1cccc(F)c1Cl [I-A-389] |
| ≤ 100 nM | CCC(=O)N1CC=C(c2cnc(N)c(-c3nnnn3-c3cccc(F)c3F)c2)CC1 [I-A-511] |
| 100 to 1000 nM | Nc1ncc(-c2ccc(CN3CCCC3)cc2)cc1-c1nnnn1-c1cc(Cl)cc(Cl)c1 [I-A-597] |
| 100 to 1000 nM | CC(=O)Nc1cccc(-c2cnc(N)c(-c3nnnn3-c3cc(Cl)ccc3F)c2)c1 [I-A-568] |
| 100 to 1000 nM | CC(=O)Nc1ccc(-c2cnc(N)c(-c3nnnn3-c3cc(F)cc(F)c3Cl)c2)cc1 [I-A-583] |
| ≤ 100 nM | CN1C[C@@H]2C[C@H]1CN2c1ccc(-c2cnc(N)c(-c3nncn3-c3cccc(F)c3F)n2)cc1 [I-A-9] |
| ≤ 100 nM | CN1CCN(c2ccc(-c3cnc(N)c(-c4nnnn4-c4cccc(F)c4F)c3)cc2)CC1 [I-A-19] |
| 100 to 1000 nM | COC(=O)c1ccc(-c2cnc(N)c(-c3nnnn3-c3cccc(F)c3F)c2)cc1 [I-A-316] |
